Patent US11891365B2, “3-alkyl-4-amido-bicyclic [4,5,0] hydroxamic acids as HDAC inhibitors” (Valo Health, Inc., priority 2015, dated 2024)

Biological target: T1, Full length human recombinant HDAC6 protein (Homo sapiens, UniProt Q9UBN7)
T1 sequence (Q9UBN7 1-1215): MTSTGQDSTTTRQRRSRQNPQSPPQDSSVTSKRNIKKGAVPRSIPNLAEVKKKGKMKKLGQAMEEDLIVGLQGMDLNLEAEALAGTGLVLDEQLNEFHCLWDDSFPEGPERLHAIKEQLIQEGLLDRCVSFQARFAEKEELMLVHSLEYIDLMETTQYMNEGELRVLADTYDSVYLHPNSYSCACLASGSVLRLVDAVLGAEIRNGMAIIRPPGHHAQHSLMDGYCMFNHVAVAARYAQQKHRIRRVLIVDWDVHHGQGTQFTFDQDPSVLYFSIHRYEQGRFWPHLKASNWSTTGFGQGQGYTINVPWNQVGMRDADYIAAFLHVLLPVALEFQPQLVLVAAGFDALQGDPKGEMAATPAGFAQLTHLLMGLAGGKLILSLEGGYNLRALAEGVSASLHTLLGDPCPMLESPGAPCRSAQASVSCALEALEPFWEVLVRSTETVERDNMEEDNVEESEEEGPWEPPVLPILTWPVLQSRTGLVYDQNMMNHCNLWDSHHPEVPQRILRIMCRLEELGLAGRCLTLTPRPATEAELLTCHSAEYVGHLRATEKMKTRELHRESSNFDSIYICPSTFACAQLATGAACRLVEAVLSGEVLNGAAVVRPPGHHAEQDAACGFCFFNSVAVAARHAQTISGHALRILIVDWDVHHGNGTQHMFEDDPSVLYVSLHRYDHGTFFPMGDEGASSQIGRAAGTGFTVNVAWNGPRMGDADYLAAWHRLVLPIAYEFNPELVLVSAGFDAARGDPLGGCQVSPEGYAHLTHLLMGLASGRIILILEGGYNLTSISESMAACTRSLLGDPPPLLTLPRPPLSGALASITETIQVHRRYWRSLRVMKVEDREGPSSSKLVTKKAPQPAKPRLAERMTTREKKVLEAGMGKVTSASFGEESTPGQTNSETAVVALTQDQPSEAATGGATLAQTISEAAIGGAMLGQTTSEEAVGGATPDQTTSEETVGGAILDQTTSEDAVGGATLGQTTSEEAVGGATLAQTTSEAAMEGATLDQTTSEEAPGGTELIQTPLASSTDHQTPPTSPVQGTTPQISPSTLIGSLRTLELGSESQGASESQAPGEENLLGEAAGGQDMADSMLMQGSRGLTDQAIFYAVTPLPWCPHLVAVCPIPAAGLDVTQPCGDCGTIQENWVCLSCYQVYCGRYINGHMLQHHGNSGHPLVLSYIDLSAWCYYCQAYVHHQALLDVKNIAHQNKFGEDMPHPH
Assay: In vitro histone deacetylase assay: enzymatic HDAC6 electrophoretic mobility shift assay
Format: biochemical
Conditions: 1 nM enzyme, 2 μM peptide substrate RHKK(Ac)-NH2, 25° C., 12 concentrations; read-out: Inhibitory Concentration (IC50) Values against HDAC6, Activity Range
Procedure: The enzymatic HDAC6 assay was performed using electrophoretic mobility shift assay. […] The enzymatic reactions were assembled in 384 well plates in a total volume of 25 μL in a reaction buffer composing: 100 mM HEPES, pH7.5, 25 mM KCl, 0.1% bovine serum albumin, 0.01% Triton X-100, 1% DMSO (from compounds) 2 μM of the fluorescently labeled peptide substrate and enzyme. The enzyme was added at a final concentration of 1 nM. The peptide substrate RHKK(Ac)—NH2 was used. The compounds were tested at 12 concentrations spaced by 3× dilution intervals. Negative control samples ([…] in the absence of inhibitor) and positive control samples (100%-inhibition) were assembled in replicates of four in each assay plate. The reactions were incubated at 25° C. and quenched by the addition of 45 μL of termination buffer (100 mM HEPES, pH 7.5, 0.01% Triton X-100, 0.05% SDS).
The terminated assay plates were analyzed on LabChip® 3000 microfluidic electrophoresis instrument (Perkin Elmer/Caliper Life Sciences). The fluorescence intensity of the electrophoretically separated de-acetylated product and substrate peptide was measured. Activity in each sample was determined as the product to sum ratio (PSR): P/(S+P), where P is the peak height of the product peptide and S is the peak height of the substrate peptide. Percent inhibition (Pinh) is determined using the following equation:
Pinh=(PSR0%−PSRinh)/(PSR0%−PSR100%)*100, where PSRinh is the product sum ratio in the presence of inhibitor, PSR0% is the average product sum ration in the absence of inhibitor and PSR100% is the average product sum ratio in 100%-inhibition control samples. The IC50 values of inhibitors were determined by fitting the %-inhibition curves with 4 parameter dose-response model using XLfit 4 software.

`CO[C@H]1C[C@H](C(=O)N2Cc3ccc(C(=O)NO)cc3OC[C@@H]2C)C1` and `CO[C@H]1C[C@@H](C(=O)N2Cc3ccc(C(=O)NO)cc3OC[C@@H]2C)C1` cannot be ordered by IC50: at most 100 nM for the first, at most 100 nM for the second.

`C[C@H]1COc2cc(C(=O)NO)ccc2CN1C(=O)[C@H]1C[C@H](Oc2ccccc2)C1` (single isomer, unassigned) and `C[C@H]1COc2cc(C(=O)NO)ccc2CN1C(=O)C1CC(Oc2ccccc2)C1` (single isomer, unassigned) cannot be ordered by IC50: at most 100 nM for the first, at most 100 nM for the second.

`C[C@H]1COc2cc(C(=O)NO)ccc2CN1C(=O)C1CCC(OC(F)(F)F)CC1` (single isomer, unassigned) [listing 1 of 2 here] and `COC1CCC(C(=O)N2Cc3ccc(C(=O)NO)cc3OC[C@@H]2C)CC1` (single isomer, unassigned) [listing 1 of 2 here] cannot be ordered by IC50: at most 100 nM for the first, at most 100 nM for the second.

`C[C@H]1COc2cc(C(=O)NO)ccc2CN1C(=O)C1CCC(OC(F)(F)F)CC1` (single isomer, unassigned) [listing 2 of 2 here] and `COC1CCC(C(=O)N2Cc3ccc(C(=O)NO)cc3OC[C@@H]2C)CC1` (single isomer, unassigned) [listing 2 of 2 here] cannot be ordered by IC50: at most 100 nM for the first, at most 100 nM for the second.

`CO[C@H]1CC[C@H](C(=O)N2CCOc3cc(C(=O)NO)ccc3[C@@H]2C)CC1` (single isomer, unassigned) and `CO[C@H]1CC[C@@H](C(=O)N2CCOc3cc(C(=O)NO)ccc3[C@@H]2C)CC1` (single isomer, unassigned) cannot be ordered by IC50: at most 100 nM for the first, at most 100 nM for the second.

Compared with `O=C(NO)c1ccc2c(c1)OCCN(C(=O)C1CCS(=O)(=O)CC1)C2` [4-(1,1-dioxidotetrahydro-2H-thiopyran-4-carbonyl)-N-hydroxy-2,3,4,5-tetrahydrobenzo[f][1,4]oxazepine-8-carboxamide], `O=C(NO)c1ccc2c(c1)OCCN(C(=O)CN1CCS(=O)(=O)CC1)C2` [4-(2-(1,1-dioxidothiomorpholino)acetyl)-N-hydroxy-2,3,4,5-tetrahydrobenzo[f][1,4]oxazepine-8-carboxamide] is higher in IC50: at most 100 nM for the first, over 500 nM for the second.

`O=C(NO)c1ccc2c(c1)OCCN(C(=O)C1(c3ccccc3Cl)CC1)C2` [4-(1-(2-chlorophenyl)cyclopropane-1-carbonyl)-N-hydroxy-2,3,4,5-tetrahydrobenzo[f][1,4]oxazepine-8-carboxamide] and `O=C(NO)c1ccc2c(c1)OCCN(C(=O)C1(c3cccc(Cl)c3)CC1)C2` [4-(1-(3-chlorophenyl)cyclopropane-1-carbonyl)-N-hydroxy-2,3,4,5-tetrahydrobenzo[f][1,4]oxazepine-8-carboxamide] cannot be ordered by IC50: at most 100 nM for the first, at most 100 nM for the second.

`O=C(NO)c1ccc2c(c1)OCCN(C(=O)C1(c3ccc(Cl)cc3)CC1)C2` [4-(1-(4-chlorophenyl)cyclopropane-1-carbonyl)-N-hydroxy-2,3,4,5-tetrahydrobenzo[f][1,4]oxazepine-8-carboxamide] and `O=C(NO)c1ccc2c(c1)OCCN(C(=O)C1(c3ccc(F)cc3)CC1)C2` [4-(1-(4-fluorophenyl)cyclopropane-1-carbonyl)-N-hydroxy-2,3,4,5-tetrahydrobenzo[f][1,4]oxazepine-8-carboxamide] cannot be ordered by IC50: at most 100 nM for the first, at most 100 nM for the second.

`O=C(NO)c1ccc2c(c1)OCCN(C(=O)C1(Cn3ccnc3)CC1)C2` [4-(1-((1H-imidazol-1-yl)methyl)cyclopropane-1-carbonyl)-N-hydroxy-2,3,4,5-tetrahydrobenzo[f][1,4]oxazepine-8-carboxamide] and `O=C(NO)c1ccc2c(c1)OCCN(C(=O)C1(Cn3cccn3)CC1)C2` [4-(1-((1H-pyrazol-1-yl)methyl)cyclopropane-1-carbonyl)-N-hydroxy-2,3,4,5-tetrahydrobenzo[f][1,4]oxazepine-8-carboxamide] cannot be ordered by IC50: at most 100 nM for the first, at most 100 nM for the second.

`CC(=O)N1CCCC(C(=O)N2CCOc3cc(C(=O)NO)ccc3C2)C1` (centres unmarked) [4-(1-acetylpiperidine-3-carbonyl)-N-hydroxy-2,3,4,5-tetrahydrobenzo[f][1,4]oxazepine-8-carboxamide] and `CC(=O)N1CCC(C(=O)N2CCOc3cc(C(=O)NO)ccc3C2)C1` (centres unmarked) [4-(1-acetylpyrrolidine-3-carbonyl)-N-hydroxy-2,3,4,5-tetrahydrobenzo[f][1,4]oxazepine-8-carboxamide] cannot be ordered by IC50: at most 100 nM for the first, 100 to 500 nM for the second.

`O=C(NO)c1ccc2c(c1)OCCN(C(=O)C1(Cc3ccccc3)CC1)C2` [4-(1-benzylcyclopropane-1-carbonyl)-N-hydroxy-2,3,4,5-tetrahydrobenzo[f][1,4]oxazepine-8-carboxamide] and `O=C(NO)c1ccc2c(c1)OCCN(C(=O)C1Cc3ccccc3C1)C2` [4-(2,3-dihydro-1H-indene-2-carbonyl)-N-hydroxy-2,3,4,5-tetrahydrobenzo[f][1,4]oxazepine-8-carboxamide] cannot be ordered by IC50: at most 100 nM for the first, at most 100 nM for the second.

`CC1(C)CC(C(=O)N2CCOc3cc(C(=O)NO)ccc3C2)CCO1` (centres unmarked) [4-(2,2-dimethyltetrahydro-2H-pyran-4-carbonyl)-N-hydroxy-2,3,4,5-tetrahydrobenzo[f][1,4]oxazepine-8-carboxamide] and `O=C(NO)c1ccc2c(c1)OCCN(C(=O)c1ccc3c(c1)CCO3)C2` [4-(2,3-dihydrobenzofuran-5-carbonyl)-N-hydroxy-2,3,4,5-tetrahydrobenzo[f][1,4]oxazepine-8-carboxamide] fall in the same range of IC50: 100 to 500 nM for the first, 100 to 500 nM for the second.

`O=C(NO)c1ccc2c(c1)OCCN(C(=O)C1CC3(CCNCC3)c3ccccc31)C2` (centres unmarked) [4-(2,3-dihydrospiro[indene-1,4′-piperidine]-3-carbonyl)-N-hydroxy-2,3,4,5-tetrahydrobenzo[f][1,4]oxazepine-8-carboxamide] and `Cc1cccc(C)c1C(=O)N1CCOc2cc(C(=O)NO)ccc2C1` [4-(2,6-dimethylbenzoyl)-N-hydroxy-2,3,4,5-tetrahydrobenzo[f][1,4]oxazepine-8-carboxamide] fall in the same range of IC50: 100 to 500 nM for the first, 100 to 500 nM for the second.

`COc1ccc(C(=O)N2CCOc3cc(C(=O)NO)ccc3C2)c(OC)c1` [4-(2,4-dimethoxybenzoyl)-N-hydroxy-2,3,4,5-tetrahydrobenzo[f][1,4]oxazepine-8-carboxamide] and `COc1ccc(C(C)(C)C(=O)N2CCOc3cc(C(=O)NO)ccc3C2)cc1OC` [4-(2-(3,4-dimethoxyphenyl)-2-methylpropanoyl)-N-hydroxy-2,3,4,5-tetrahydrobenzo[f][1,4]oxazepine-8-carboxamide] fall in the same range of IC50: 100 to 500 nM for the first, 100 to 500 nM for the second.

First: CC(C(=O)N1CCOc2cc(C(=O)NO)ccc2C1)N1CCS(=O)(=O)CC1 (centres unmarked) [4-(2-(1,1-dioxidothiomorpholino)propanoyl)-N-hydroxy-2,3,4,5-tetrahydrobenzo[f][1,4]oxazepine-8-carboxamide]
Second: O=C(NO)c1ccc2c(c1)OCCN(C(=O)COc1cccc(Cl)c1)C2 [4-(2-(3-chlorophenoxy)acetyl)-N-hydroxy-2,3,4,5-tetrahydrobenzo[f][1,4]oxazepine-8-carboxamide]
The IC50 of the first is higher: over 500 nM for the first, 100 to 500 nM for the second. The second is the more potent here.

`CC(C)(C(=O)N1CCOc2cc(C(=O)NO)ccc2C1)c1ccc2c(c1)OCCO2` [4-(2-(2,3-dihydrobenzo[b][1,4]dioxin-6-yl)-2-methylpropanoyl)-N-hydroxy-2,3,4,5-tetrahydrobenzo[f][1,4]oxazepine-8-carboxamide] and `O=C(NO)c1ccc2c(c1)OCCN(C(=O)Cc1cc(C(F)(F)F)cc(C(F)(F)F)c1)C2` [4-(2-(3,5-bis(trifluoromethyl)phenyl)acetyl)-N-hydroxy-2,3,4,5-tetrahydrobenzo[f][1,4]oxazepine-8-carboxamide] fall in the same range of IC50: 100 to 500 nM for the first, 100 to 500 nM for the second.
